“And” between values parts separate entries of the source, which are not always exact repeats. Equal entries are not always repeated.
Tests used:
[1] = xn = mol fraction of the nth substance listed; details: 101 kPa, Liquid
[2] = Liquid

C1CCCC1 [cyclopentane] + CC(C)O
[1]
Details	mass density, 293.15 K [kg/m3]	mass density, 298.15 K [kg/m3]	mass density, 303.15 K [kg/m3]	speed of sound, 293.15 K [m/s]	speed of sound, 298.15 K [m/s]	speed of sound, 303.15 K [m/s]	viscosity, 293.15 K [mPa·s]	viscosity, 298.15 K [mPa·s]	viscosity, 303.15 K [mPa·s]
x1 = 0.0486	782.53	778.24	773.87	1156	1138	1120	2.105	1.823	1.587
x1 = 0.091	779.96	775.6	771.15	1155	1136	1118	1.874	1.627	1.421
x1 = 0.2019	774.33	769.77	765.12	1156	1136	1116	1.425	1.254	1.11
x1 = 0.2958	769.22	764.52	759.73	1156	1135	1114	1.172	1.038	0.925
x1 = 0.3877	764.63	759.81	754.9	1158	1136	1114	0.954	0.856	0.77
x1 = 0.4823	760.38	755.45	750.44	1162	1139	1116	0.799	0.724	0.658
x1 = 0.5974	755.59	750.58	745.49	1168	1145	1121	0.641	0.588	0.542
x1 = 0.7206	750.97	745.92	740.79	1179	1154	1130	0.535	0.499	0.466
x1 = 0.8136	747.96	742.89	737.76	1190	1165	1140	0.484	0.454	0.427
x1 = 0.9219	745.39	740.33	735.2	1208	1183	1157	0.449	0.424	0.401
x1 = 0.9533	744.87	739.86	734.72	1215	1189	1164	0.443	0.419	0.398
x1 = 1	744.52	739.55	734.54	1232	1206	1180	0.438	0.416	0.394

C1CCCC1 [cyclopentane]
[2], 101 kPa
Details	mass density [kg/m3]	speed of sound [m/s]	viscosity
293.15 K	744.52	1232	0.438 mPa·s and 0.439 mPa·s
298.15 K	739.55	1206	0.416 mPa·s
303.15 K	734.54	1180	0.394 mPa·s

C1CCCCC1 [cyclohexane] + CCC(C)O
[1], x1 = 1
Details	mass density [kg/m3]	speed of sound [m/s]	viscosity [mPa·s]
293.15 K	778.62	1279	0.968
298.15 K	773.92	1254	0.887
303.15 K	769.19	1230	0.816

CC(C)O [propan-2-ol] + C1CCCCC1
[1], x2 = 0
Details	mass density [kg/m3]	speed of sound [m/s]	viscosity [mPa·s]
293.15 K	785.07	1156	2.382
298.15 K	780.87	1139	2.045
303.15 K	776.6	1121	1.763

CCCC(C)O (configuration not stated) [pentan-2-ol]
[2]
Details	mass density, 293.15 K [kg/m3]	mass density, 298.15 K [kg/m3]	mass density, 303.15 K [kg/m3]	speed of sound, 293.15 K [m/s]	speed of sound, 298.15 K [m/s]	speed of sound, 303.15 K [m/s]	viscosity, 293.15 K [mPa·s]	viscosity, 298.15 K [mPa·s]	viscosity, 303.15 K [mPa·s]
7 kPa	–	–	–	1250	1232	1214	–	–	–
101 kPa	809.04	805.01	800.9	1250	1232	1214	4.001	3.273	2.774

CC(C)O [propan-2-ol] + C1CCCC1
[1], x2 = 0
Details	mass density [kg/m3]	speed of sound [m/s]	viscosity [mPa·s]
293.15 K	785.07	1156	2.382
298.15 K	780.87	1139	2.045
303.15 K	776.6	1121	1.763

C1CCCCC1 [cyclohexane]
[2]
Details	mass density, 293.15 K [kg/m3]	mass density, 298.15 K [kg/m3]	mass density, 303.15 K [kg/m3]	speed of sound, 293.15 K [m/s]	speed of sound, 298.15 K [m/s]	speed of sound, 303.15 K [m/s]	viscosity, 293.15 K [mPa·s]	viscosity, 298.15 K [mPa·s]	viscosity, 303.15 K [mPa·s]
7 kPa	–	–	–	1279	1254	1230	–	–	–
101 kPa	778.62	773.92	769.19	1279	1254	1230	0.968	0.887	0.816

CCC(C)O (configuration not stated) [butan-2-ol]
[2], 101 kPa
Details	mass density [kg/m3]	speed of sound [m/s]	viscosity [mPa·s]
293.15 K	806.84	1230	3.623
298.15 K	802.72	1212	2.995
303.15 K	798.51	1194	2.493

CCC(C)O (configuration not stated) [butan-2-ol] + C1CCCCC1
[1]
Details	mass density, 293.15 K [kg/m3]	mass density, 298.15 K [kg/m3]	mass density, 303.15 K [kg/m3]	speed of sound, 293.15 K [m/s]	speed of sound, 298.15 K [m/s]	speed of sound, 303.15 K [m/s]	viscosity, 293.15 K [mPa·s]	viscosity, 298.15 K [mPa·s]	viscosity, 303.15 K [mPa·s]
x2 = 0	806.84	802.72	798.51	1230	1212	1194	3.623	2.995	2.493
x2 = 0.0494	804.24	800.04	795.77	1228	1210	1191	3.231	2.687	2.251
x2 = 0.1003	801.95	797.69	793.34	1226	1207	1188	2.915	2.444	2.066
x2 = 0.1969	797.77	793.37	788.88	1223	1204	1184	2.227	1.891	1.623
x2 = 0.3052	793.48	788.95	784.34	1222	1201	1181	1.726	1.489	1.294
x2 = 0.4044	789.86	785.24	780.54	1222	1201	1179	1.48	1.299	1.142
x2 = 0.5004	786.73	782.04	777.29	1224	1202	1180	1.315	1.166	1.042
x2 = 0.6016	783.91	779.18	774.41	1228	1205	1183	1.16	1.042	0.942
x2 = 0.7145	781.42	776.68	772.02	1236	1213	1189	1.066	0.968	0.888
x2 = 0.8067	779.85	775.08	770.26	1245	1222	1198	0.98	0.892	0.817
x2 = 0.9046	778.86	774.06	769.22	1259	1235	1211	0.962	0.879	0.806
x2 = 0.9523	778.43	773.65	768.82	1267	1242	1218	0.993	0.908	0.833

C1CCCCC1 [cyclohexane] + CC(C)O
[1]
Details	mass density, 293.15 K [kg/m3]	mass density, 298.15 K [kg/m3]	mass density, 303.15 K [kg/m3]	speed of sound, 293.15 K [m/s]	speed of sound, 298.15 K [m/s]	speed of sound, 303.15 K [m/s]	viscosity, 293.15 K [mPa·s]	viscosity, 298.15 K [mPa·s]	viscosity, 303.15 K [mPa·s]
x1 = 0.0484	783.76	779.5	775.15	1160	1141	1123	2.184	1.883	1.633
x1 = 0.097	782.63	778.29	773.87	1163	1145	1126	1.988	1.722	1.504
x1 = 0.2006	780.51	776.05	771.5	1171	1152	1132	1.651	1.444	1.267
x1 = 0.3002	778.87	774.29	769.62	1180	1159	1139	1.427	1.26	1.112
x1 = 0.3977	777.63	772.95	768.19	1189	1167	1146	1.264	1.119	0.996
x1 = 0.507	776.69	771.92	767.09	1200	1178	1155	1.128	1.008	0.908
x1 = 0.6046	776.15	771.34	766.47	1211	1188	1165	1.025	0.926	0.838
x1 = 0.7058	775.92	771.11	766.23	1223	1200	1176	0.969	0.878	0.798
x1 = 0.823	776.23	771.42	766.56	1240	1216	1192	0.944	0.856	0.786
x1 = 0.9016	776.88	772.09	767.24	1254	1230	1206	0.95	0.87	0.801
x1 = 0.9521	777.52	772.74	767.92	1265	1240	1216	0.962	0.874	0.802
x1 = 1	778.62	773.92	769.19	1279	1254	1230	0.968	0.887	0.816

CC(C)O [propan-2-ol]
[2], 101 kPa
Details	mass density [kg/m3]	speed of sound [m/s]	viscosity [mPa·s]
293.15 K	785.07	1156	2.382
298.15 K	780.87	1139	2.045
303.15 K	776.6	1121	1.763
